In BindingDB's records for doi:10.7270/Q2H70D5W (University of Pittsburgh, 2007):

Molecular target: Gag-Pol polyprotein (Human immunodeficiency virus type 1 group M subtype B (isolate HXB2), UniProt P04585)
Assay: HIV-1 RT RNase H inhibitor potency, dose response, biochemical, probe assessment (AID 652)
Conditions: pH 8; 23 °C

With `O=C(Nc1ccc2nc(-c3ccco3)c(-c3ccco3)nc2c1)N1CCCCCC1` the IC50 was 0.953 µM.

With `CCCCCC#CCC#CCC#CCC#CCCCC(=O)O` the IC50 was 0.794 µM.

`Cc1ccc2c(c1C)NC(C(=O)O)C1CC=CC21` (centres undefined) gave an IC50 of 1.03 µM.

Work on `CCCc1nc2ccccc2c(=O)n1N=Cc1ccc(O)c(O)c1` yielded an IC50 of 0.767 µM.

`N#Cc1cc(-c2ccccc2)nn1-c1ccccc1` was tested, and the IC50 was 0.876 µM.

Work on `c1ccc(-c2ccc(C3=Nc4ncnn4C(c4ccco4)C3)cc2)cc1` (centres undefined) yielded an IC50 of 14.5 µM.

`O=C(CSc1nnc[nH]1)c1ccccc1` showed an IC50 of 5.52 µM.

Compound `Cc1cc(C)n2c(S)nnc2n1` has an IC50 of 8.1 µM.

Work on `CCCCCn1c(SCCCC)nc2c1c(=O)[nH]c(=O)n2C` yielded an IC50 of 2.48 µM.

Compound `Cc1sc(-n2c(C)cc(C=Nn3cnnc3)c2C)c(C#N)c1C` has an IC50 of 2.22 µM.

For `COCCn1c(-c2ccc(-c3ccccc3Cl)o2)nc2c1c(=O)[nH]c(=O)n2CC(C)C`, the IC50 was 4.55 µM.

In the case of `c1ccc2[nH]c(SN3CCOCC3)nc2c1`, the IC50 is reported as 12.5 µM.

In the case of `CC(C)c1ccc2oc(-c3ccc(NC(=O)c4nnc[nH]4)cc3)nc2c1`, the IC50 is reported as 5.64 µM.

`CN1CSC2=C(C#N)C(c3cccc(OCc4ccccc4)c3)CC(=O)N2C1` (centres undefined) was tested, and the IC50 was 10.6 µM.

Work on `C=CCOc1ccc(CC2C(=O)N(C)C(=O)N(C)C2=O)cc1` [1,3-dimethyl-5-[(4-prop-2-enoxyphenyl)methyl]-1,3-diazinane-2,4,6-trione] yielded an IC50 of 2.61 µM.

In the case of `CCn1c(SCC(=O)c2ccc(O)c(O)c2)nnc1-c1ccccc1OC` [1-(3,4-dihydroxyphenyl)-2-[[4-ethyl-5-(2-methoxyphenyl)-1,2,4-triazol-3-yl]sulfanyl]ethanone], the IC50 is reported as 2.36 µM.

`C=CCn1c(SCC(=O)c2ccc(O)c(O)c2)nnc1-c1ccccc1OC` [1-(3,4-dihydroxyphenyl)-2-[[5-(2-methoxyphenyl)-4-prop-2-enyl-1,2,4-triazol-3-yl]sulfanyl]ethanone] showed an IC50 of 2.57 µM.

`CCC1CCCCN1S(=O)(=O)c1ccc(S(=O)(=O)N2CCN(S(=O)(=O)CC)CC2)cc1` (centres undefined) [1-Ethanesulfonyl-4-[4-(2-ethyl-piperidine-1-sulfonyl)-benzenesulfonyl]-piperazine] was tested, and the IC50 was 12.3 µM.

With `CC(C)c1nnc(NC(=O)c2c(O)n3c4c(cccc4c2=O)CCC3)s1` [1-Hydroxy-3-oxo-6,7-dihydro-3H,5H-pyrido[3,2,1-ij]quinoline-2-carboxylic acid (5-isopropyl-[1,3,4]thiadiazol-2-yl)-amide] the IC50 was 14.9 µM.

For `CCOC(=O)C1CCCN(C(=O)Cn2sc3nc(C)cc(C)c3c2=O)C1` (centres undefined) [1-[2-(3-keto-4,6-dimethyl-isothiazolo[5,4-b]pyridin-2-yl)acetyl]nipecotic acid ethyl ester], the IC50 was 9.03 µM.

Compound `c1ccc(Cc2nn3c(Cn4cnc5ccccc54)nnc3s2)cc1` [1-[(6-benzyl[1,2,4]triazolo[3,4-b][1,3,4]thiadiazol-3-yl)methyl]-1H-benzimidazole] has an IC50 of 2.2 µM.

`O=S(=O)(c1ccc(S(=O)(=O)N2CCN(C/C=C/c3ccccc3)CC2)cc1)N1CCCC1` [1-[(E)-3-phenylprop-2-enyl]-4-(4-pyrrolidin-1-ylsulfonylphenyl)sulfonyl-piperazine] was tested, and the IC50 was 12.2 µM.

`C=CCn1c(=O)c(C(=O)Nc2nnc(C)s2)c(O)c2ccccc21` [1-allyl-2-hydroxy-4-keto-N-(5-methyl-1,3,4-thiadiazol-2-yl)quinoline-3-carboxamide] gave an IC50 of 16.8 µM.

Compound `CCCCCn1c(=O)c(C(=O)NCc2ccncc2)c(O)c2ccccc21` [1-amyl-2-hydroxy-4-keto-N-(4-pyridylmethyl)quinoline-3-carboxamide] has an IC50 of 7.42 µM.

For `c1ccc2c(c1)nnn2Cc1nnc2sc(-c3ccc4c(c3)OCCO4)nn12` [1-{[6-(2,3-dihydro-1,4-benzodioxin-6-yl)[1,2,4]triazolo[3,4-b][1,3,4]thiadiazol-3-yl]methyl}-1H-1,2,3-benzotriazole], the IC50 was 1.69 µM.

`c1cncc(-c2nn3c(Cn4cnc5ccccc54)nnc3s2)c1` [1-{[6-(3-pyridinyl)[1,2,4]triazolo[3,4-b][1,3,4]thiadiazol-3-yl]methyl}-1H-benzimidazole] was tested, and the IC50 was 0.621 µM.

`O=C(Nc1ccc(N2CCOCC2)cc1)c1ccc2nc(-c3ccco3)c(-c3ccco3)nc2c1` [2,3-bis(2-furanyl)-N-[4-(4-morpholinyl)phenyl]-6-quinoxalinecarboxamide] showed an IC50 of 22.6 µM.

`Cc1nc(C)c(C(=O)Nc2nc3c(C)cccc3s2)o1` [2,4-dimethyl-N-(4-methyl-1,3-benzothiazol-2-yl)-1,3-oxazole-5-carboxamide] showed an IC50 of 1.49 µM.

`CCOc1cc(C2C(C#N)C(=N)SC(=N)C2C#N)ccc1OCCN1CCOCC1` (centres undefined) [2,6-bis(azanyl)-4-[3-ethoxy-4-(2-morpholin-4-ylethoxy)phenyl]-4H-thiopyran-3,5-dicarbonitrile] was tested, and the IC50 was 31.5 µM.

Work on `N#CC1C(=N)SC(=N)C(C#N)C1c1ccnc2ccccc12` (centres undefined) [2,6-bis(azanyl)-4-quinolin-4-yl-4H-thiopyran-3,5-dicarbonitrile] yielded an IC50 of 13.7 µM.

Work on `CCCc1nnc(NC(=O)CN2C(=O)c3ccccc3S2(=O)=O)s1` [2-(1,1-dioxido-3-oxo-1,2-benzisothiazol-2(3H)-yl)-N-(5-propyl-1,3,4-thiadiazol-2-yl)acetamide] yielded an IC50 of 3.23 µM.

`O=C(NCc1ccco1)c1cccnc1-c1nc2ccccc2s1` [2-(1,3-benzothiazol-2-yl)-N-(2-furanylmethyl)-3-pyridinecarboxamide] showed an IC50 of 3.26 µM.

`Cc1nn2c(-c3cccc(NC(=O)CSc4nc5ccccc5o4)c3)nnc2c2ccccc12` [2-(1,3-benzoxazol-2-ylsulfanyl)-N-[3-(6-methyl-[1,2,4]triazolo[3,4-a]phthalazin-3-yl)phenyl]acetamide] gave an IC50 of 3.71 µM.

With `CCOc1ccc(-n2c(=O)c3c4c(sc3n(CC(=O)NCc3ccco3)c2=O)CCC4)cc1` [2-(1,3-diketo-2-p-phenetyl-7,8-dihydro-6H-cyclopenta[2,3]thieno[2,4-b]pyrimidin-4-yl)-N-(2-furfuryl)acetamide] the IC50 was 22.4 µM.

`O=C1CC(c2ccccc2)Cc2nc(N3CCc4ccccc43)ncc21` (centres undefined) [2-(2,3-dihydroindol-1-yl)-7-phenyl-7,8-dihydro-6H-quinazolin-5-one] gave an IC50 of 5.87 µM.

For `Cc1cccc(OCC(=O)Nc2cccc(-c3nnc(-c4ccccc4)o3)c2)c1C` [2-(2,3-dimethylphenoxy)-N-[3-(5-phenyl-1,3,4-oxadiazol-2-yl)phenyl]acetamide], the IC50 was 3.92 µM.

`O=c1c(O)c(-c2ccc(O)cc2O)oc2cc(O)cc(O)c12` [2-(2,4-dihydroxyphenyl)-3,5,7-trihydroxychromen-4-one] showed an IC50 of 2.11 µM.

Compound `Cc1cc(NC(=O)CSc2nc(C3CC3)nc3sc4c(c23)CCC(C)C4)no1` (centres undefined) [2-(2-Cyclopropyl-7-methyl-5,6,7,8-tetrahydro-benzo[4,5]thieno[2,3-d]pyrimidin-4-ylsulfanyl)-N-(5-methyl-isoxazol-3-yl)-acetamide] has an IC50 of 5.41 µM.

`O=C(Cn1c(=O)oc2cc(S(=O)(=O)N3CCCC3)ccc21)NC1CCCc2ccccc21` (centres undefined) [2-(2-keto-6-pyrrolidinosulfonyl-1,3-benzoxazol-3-yl)-N-tetralin-1-yl-acetamide] showed an IC50 of 19.8 µM.

For `COCCSc1ccccc1C(=O)Nc1cc(C)on1` [2-(2-methoxyethylsulfanyl)-N-(5-methyl-1,2-oxazol-3-yl)benzamide], the IC50 was 10.8 µM.

With `O=c1c2ccccc2sn1-c1cc(S(=O)(=O)N2CCOCC2)ccc1N1CCOCC1` [2-(2-morpholin-4-yl-5-morpholin-4-ylsulfonyl-phenyl)-1,2-benzothiazol-3-one] the IC50 was 0.579 µM.

With `Cc1cc(C)cc(OCC(=O)Nc2nonc2NC(=O)COc2cc(C)cc(C)c2)c1` [2-(3,5-dimethylphenoxy)-N-[4-[2-(3,5-dimethylphenoxy)ethanoylamino]-1,2,5-oxadiazol-3-yl]ethanamide] the IC50 was 1.89 µM.

`COC(=O)c1sc(N2C(=O)c3oc4ccccc4c(=O)c3C2c2cccs2)nc1C` (centres undefined) [2-(3,9-dioxo-1-thiophen-2-yl-1H-[1]benzopyrano[2,3-c]pyrrol-2-yl)-4-methyl-5-thiazolecarboxylic acid methyl ester] gave an IC50 of 5.25 µM.

`Cc1cccc(NC(=O)Cn2c(C)c(C#N)c3ccccc32)c1C` [2-(3-Cyano-2-methyl-indol-1-yl)-N-(2,3-dimethyl-phenyl)-acetamide] gave an IC50 of 29 µM.

Work on `Cc1cc(C)c2c(=O)n(CC(=O)NCCCN3CCOCC3)sc2n1` [2-(3-keto-4,6-dimethyl-isothiazolo[5,4-b]pyridin-2-yl)-N-(3-morpholinopropyl)acetamide] yielded an IC50 of 9.4 µM.

`O=C(COc1ccc(Br)cc1)Nc1ccc(-c2nnc(-c3ccco3)o2)cc1` [2-(4-bromanylphenoxy)-N-[4-[5-(furan-2-yl)-1,3,4-oxadiazol-2-yl]phenyl]ethanamide] showed an IC50 of 6.33 µM.

`COc1ccc(CC(=O)Nc2ccc(-c3noc(-c4cccc(OC)c4)n3)cc2)cc1` [2-(4-methoxyphenyl)-N-[4-[5-(3-methoxyphenyl)-1,2,4-oxadiazol-3-yl]phenyl]acetamide] showed an IC50 of 3.07 µM.

`Cc1ccnc(-n2sc3ccccc3c2=O)n1` [2-(4-methyl-2-pyrimidinyl)-1,2-benzothiazol-3-one] showed an IC50 of 1.17 µM.

Compound `Cc1ccc(-n2sc3ccccc3c2=O)cc1S(=O)(=O)N1CCCCC1` [2-(4-methyl-3-piperidin-1-ylsulfonyl-phenyl)-1,2-benzothiazol-3-one] has an IC50 of 0.164 µM.

`Cc1sc2nc(SCC(=O)NCc3ccco3)n(CCc3ccccc3)c(=O)c2c1C` [2-(5,6-Dimethyl-4-oxo-3-phenethyl-3,4-dihydro-thieno[2,3-d]pyrimidin-2-ylsulfanyl)-N-furan-2-ylmethyl-acetamide] gave an IC50 of 3.86 µM.

`C=CCn1c(SCC(=O)NC(=O)NCc2ccco2)nc2sc(C)c(C)c2c1=O` [2-(5,6-dimethyl-4-oxidanylidene-3-prop-2-enyl-thieno[2,3-d]pyrimidin-2-yl)sulfanyl-N-(furan-2-ylmethylcarbamoyl)ethanamide] was tested, and the IC50 was 19 µM.

`O=C(CSc1nc2ccccc2c2nc3ccccc3n12)NCc1ccco1` [2-(6-benzimidazolo[1,2-c]quinazolinylthio)-N-(2-furanylmethyl)acetamide] gave an IC50 of 8.73 µM.

`CCOC(=O)C(C(C)=O)c1c(Br)c(O)c(O)c2c(C(=O)c3ccc(C)cc3)coc12` (centres undefined) [2-(6-bromo-4,5-dihydroxy-3-p-toluoyl-benzofuran-7-yl)-3-keto-butyric acid ethyl ester] gave an IC50 of 0.421 µM.

For `CC1CCc2c(sc(NC(=O)c3ccc(Cn4cc(Br)cn4)o3)c2C(N)=O)C1` (centres undefined) [2-({5-[(4-bromo-1H-pyrazol-1-yl)methyl]-2-furoyl}amino)-6-methyl-4,5,6,7-tetrahydro-1-benzothiophene-3-carboxamide], the IC50 was 3.19 µM.
